Laboratory results published in patent US4666924A, “Certain pyridyl substituted aminomethyl benzene derivatives having anti-arrhythmic activity” (priority 1984, dated 1987).
Like-named read-outs stand apart in the source and are kept apart here.

Tests used:
[1] = tested on: Harris dog (ventricular arrhythmias); assay: Antiarrhythmic activity by coronary ligation in the Harris dog model; format: in vivo, adult mongrel dogs; conditions: for minimal effective dose: Canis lupus familiaris, 5 min, read-out: Antiarrhythmic ED in Harris Dog (effective dose required to sustain normal sinus rhythm)
From the text: The following examples describe the pharmacological evaluation of the compounds made in accordance with the present invention. In particular, these examples describe the evaluation of antiarrhythmic activity by coronary ligation in the well known Harris dog model. Ventricular arrhythmias were induced in adult mongrel dogs (10-15 kg) of either sex by two-state ligation of the left anterior descending coronary artery. […] The test compound in saline was infused intravenously at a cumulative rate of 0.3 mg/kg/min (base) until normal sinus rhythm or toxicity occurred. Normal sinus rhythm was defined as 90-100% normal complexes over a 5 min period.

guinea pig ileum = assay: In vitro anticholinergic activity in the isolated guinea pig ileum (field stimulation); format: cell-based, male Hartley guinea pigs; conditions: for inhibition at 4 µg/mL: Cavia porcellus, read-out: Anticholinergic Inhibition of Guinea Pig Ileum
Description: The following examples describe the in vitro evaluation of anticholinergic activity in the isolated guinea pig ileum. Fasted, male Hartley guinea pigs (300-400 g) were killed by a blow to the head. […] One end of the ileal strip was impaled onto a platinum wire electrode; and the other end was tied to a stationary glass rod. Basal tension was set at 0.1-0.3 g and peak developed tension in response to field stimulation (100-150 V, 10 msec pulse duration, 0.2 Hz) was measured with a tension transducer.

cardiac cells = conditions: cited from earlier work; for effects on impulse formation, conduction velocity and refractory period: cardiac cells
patients = conditions: cited from earlier work
[2] = tested on: vagal stimulation of the heart and peripheral parasympathetic stimulation; conditions: cited from earlier work
[3] = IV infusion in saline, cumulative rate 0.3 mg/kg/min (base), day after two-stage ligation of left anterior descending coronary artery, normal sinus rhythm = 90-100% normal complexes over 5 min
[4] = at 4 mg/L, field stimulation 100-150 V, 10 msec, 0.2 Hz
[5] = patients, management of arrhythmias

SMILES	minimal effective dose [1, 3] [mg/kg]	inhibition at 4 µg/mL (guinea pig ileum; [4]) [%]	also measured
Oc1c(CN2CCCC2)cc(Nc2ccc3ccccc3n2)cc1CN1CCCC1 [Example XVII, 2-[3',5'-bis(N-pyrrolidinylmethyl)-4'-hydroxyanilino]-quinoline]	6	50	
Oc1c(CN2CCCC2)cc(Nc2nnc(Cl)c3ccccc23)cc1CN1CCCC1 [Example V, 1-N-[3',5'-bis(N-pyrrolidinylmethyl)-4'-hydroxyanilino]-4-chlorophthalazine]	2.5	76	
Oc1c(CN2CCCC2)cc(Nc2ncnc3ccccc23)cc1CN1CCCC1 [Changrolin, 4-[3',5'-bis[N-pyrolidinylmethyl]-4'-hydroxyanilino]-quinazoline]	10.3	43	antiarrhythmic effectiveness of known agent (cardiac cells; background statement): effective antiarrhythmic agent; adverse side-effects (patients; [5]): skin discoloration in some patients; anticholinergic action [2]: substantial anticholinergic activity
CC(C)N(CCC(C(N)=O)(c1ccccc1)c1ccccn1)C(C)C (stereo not drawn) [Disopyramide, α[2-(diisopropylamino)-ethyl]α-phenol-2-pyridineacetamide]			minimal effective dose ([1]; iv): 6.8 mg/kg; inhibition at 4 µg/mL (guinea pig ileum): 81%; effects on impulse formation, conduction velocity and refractory period (cardiac cells): depress impulse formation, slow conduction velocity, and increase the duration of the refractory period of cardiac cells; adverse side-effects (patients; [5]): dryness of the mouth, blurred vision, constipation, and urinary retention, and depression of myocardial contractility; anticholinergic action [2]: indirect anticholinergic actions
Oc1c(CN2CCCC2)cc(Nc2nncc3ccccc23)cc1CN1CCCC1 [Example IV, 1[3',5'-bis[N-pyrrolidinylmethyl]-4'-hydroxyanilino]-phthalazine]	1.5	83	
Oc1c(CN2CCCC2)cc(Nc2ncccn2)cc1CN1CCCC1 [Example XI, 2-N-[3',5'-bis(pyrrolidinylmethyl)-4'-hydroxyanilino]-pyrimidine]		6	Antiarrhythmic ED in Harris Dog (effective dose required to sustain normal sinus rhythm) [1, 3]: low activity
Oc1c(CN2CCCC2)cc(CNc2nnc(Cl)c3ccccc23)cc1CN1CCCC1 [XIX, 1-N-[3',5'-bis(N-pyrrolidinylmethyl)-4'-hydroxybenzylamino]-4-chlorophthalazine]	4.5	78	
COc1cc2c(Nc3cc(CN4CCCC4)c(O)c(CN4CCCC4)c3)ncnc2c(OC)c1OC [XII, 4-[3',5'-bis(pyrrolidinylmethyl)-4'-hydroxyanilino]-6,7,8-trimethoxyquinazoline]		14	
Oc1ccc(Nc2nnc(Cl)c3ccccc23)cc1CN1CCCC1 [VI, 1-N-[3'-N-pyrrolidinylmethyl-4'-hydroxyanilino]-4-chlorophthalazine]	17	65	
Oc1c(CN2CCCC2)cc(Nc2ccncc2)cc1CN1CCCC1 [XX]	8	5	
Oc1c(CN2CCCC2)cc(Nc2ccnc3cc(Cl)ccc23)cc1CN1CCCC1 [Example XV, 4-[3',5'-bis(N-pyrrolidinylmethyl)-4'-hydroxyanilino]-7-chloroquinoline]		27	Antiarrhythmic ED in Harris Dog (effective dose required to sustain normal sinus rhythm) [1, 3]: low activity
Nc1cc(CN2CCCC2)c(O)c(CN2CCCC2)c1 [Example I, 3,5-bis(N-pyrrolidinylmethyl)-4-hydroxyaniline]		3	Antiarrhythmic ED in Harris Dog (effective dose required to sustain normal sinus rhythm) [1, 3]: inactive
Clc1nnc(Nc2cc(CN3CCCC3)cc(CN3CCCC3)c2)c2ccccc12 [XXI]	3	93	
Oc1ccc(Nc2ncnc3ccccc23)cc1 [Example II, 4-(4'-hydroxyanilino)-quinazoline]		13	Antiarrhythmic ED in Harris Dog (effective dose required to sustain normal sinus rhythm) [1, 3]: inactive
Oc1c(CN2CCCC2)cc(Nc2ccnc3cc(C(F)(F)F)ccc23)cc1CN1CCCC1 [XIII, 4-[3',5'-bis(N-pyrrolidinylmethyl)-4'-hydroxyanilino]-7-trifluoromethylquinoline]	3	36	
Oc1ccc(Nc2nncc3ccccc23)cc1 [Example III, 1-(4'-hydroxyanilino)phthalazine]		23	Antiarrhythmic ED in Harris Dog (effective dose required to sustain normal sinus rhythm) [1, 3]: inactive
Oc1ccc(Nc2ccc3ccccc3n2)cc1CN1CCCC1 [XVIII, 2-[3'-(N-pyrrolidinylmethyl)-4'-hydroxyanilino]-quinoline]	11	72	
C=C[C@H]1C[N@@]2CC[C@H]1C[C@@H]2[C@@H](O)c1ccnc2ccc(OC)cc12 (stereo in doubt) [Quinidine, 6-methoxy-α-(5'-vinyl-2-quinuclidinyl)-4-quindinemethanol]	10.1	62	effects on impulse formation, conduction velocity and refractory period (cardiac cells): depress impulse formation, slow conduction velocity, and increase the duration of the refractory period of cardiac cells; adverse side-effects (patients; human, in vivo): cardiotoxicity, diarrhea, nausea, vomiting, fever, hypertension and depression of myocardial contractility; anticholinergic action [2]: indirect anticholinergic actions
COc1nnc(Nc2cc(CN3CCCC3)c(O)c(CN3CCCC3)c2)c2ccccc12 [VII, 1-N-[3',5'-bis(pyrrolidinylmethyl)-4'-hydroxyanilino]-4-methoxyphthalazine]		84	Antiarrhythmic ED in Harris Dog (effective dose required to sustain normal sinus rhythm) [1, 3]: low activity
Oc1c(CN2CCCC2)cc(Nc2nccc3ccccc23)cc1CN1CCCC1 [VIII, 1-N-[3',5'-bis(pyrrolidinylmethyl)-4'-hydroxyanilino]-isoquinoline]	1.1		Anticholinergic Inhibition of Guinea Pig Ileum (guinea pig ileum; [4]): active
Oc1c(CN2CCCC2)cc(Nc2ccc(Cl)nn2)cc1CN1CCCC1 [Example X, 3-N-[3',5'-bis(N-pyrrolidinylmethyl)-4'-hydroxyanilino]-6-chloropyridazine]	10.5	40	
CN(C)Cc1cc(Nc2nncc3ccccc23)cc(CN(C)C)c1O [IX]	14	14	
Cc1cc(Nc2cc(CN3CCCC3)c(O)c(CN3CCCC3)c2)c2ccccc2n1 [Example XIV, 2-methyl-4-[3',5'-bis(N-pyrrolidinylmethyl)]-4'-hydroxyanilinoquinoline]	9.5		
Oc1c(CN2CCCC2)cc(Nc2ccnc3ccccc23)cc1CN1CCCC1 [Example XVI, 4-[3',5'-bis(N-pyrrolidinylmethyl)-4'-hydroxyanilino]-quinoline]		19	Antiarrhythmic ED in Harris Dog (effective dose required to sustain normal sinus rhythm) [1, 3]: low activity
